Laboratory results reported in patent US4027005A, “Diagnostic agents” (New England Nuclear Corporation, priority 1974, dated 1977).
Like-named read-outs stand apart in the source and are kept apart here.

Key:
[1] = cited from earlier work
[2] = Comparative one hour rat organ distribution and organ uptake contrast ratios; format: in vivo; conditions: i.v.; for Kidney/G.I. organ uptake contrast ratio / Kidney/liver organ uptake contrast ratio / Kidney/blood organ uptake contrast ratio: activity per gram; for Kidney/blood organ uptake contrast ratio: 60 min; for Blood, organ distribution / G.I., organ distribution / Kidney, organ distribution / Liver, organ distribution: decay corrected, average of at least two animals
Method: Each of the foregoing renal scanning agents is aseptically intravenously injected (0.25 ml containing about 3-5 mCi) into adult rats. One hour later the rats are sacrificed, and the blood collected, weighed and counted. The organs of interest, e.g. the kidney, the liver, and the gastrointestinal tract, are individually weighed and the radioactivity contained therein counted. The amount of radioactivity injected is determined by counting the radioactivity in the syringe before and after injection. The organ distribution values are reported as the percent of the activity injected which is observed in the organ, corrected for the radioactive decay of technetium. The organ uptake contrast ratios are determined by determining the relative activity contained per gram of the organs compared.

[3] = Sub-acute toxicity in dogs; format: in vivo; conditions: 19 mg/kg per day for 14 days
[4] = Acute toxicity in mice, intravenous; format: in vivo
[5] = Sub-acute toxicity in mice; format: in vivo; conditions: mice, 800, 400 and 80 mg/kg per day for 15 days
[6] = Distribution data in rats of the glucoheptonate agent; conditions: within one hour post injection
[7] = test system: infarcted myocardial tissue; experiment: Infarction tests: accumulation in infarcted myocardial tissue; format: in vivo, rat; conditions: for ratio B: activity per gram of infarcted tissue to activity per gram in the blood: 60 min
Method: In each case a myocardial infarct is produced in adult rats by surgery. In Example 9, doses of about 3-5 mCi each of the glucoheptonate and tetracycline agents respectively are injected three hours after infarct was induced. The animals are sacrificed one hour after injection and the heart removed. The infarcted tissue, which is visibly distinguishable from normal myocardial tissue, was excised, weighed and counted. The normal myocardial tissue was also weighed and its activity counted and the results are reported as the ratio of the activity per gram of the infarcted tissue to the activity per gram of the normal tissue (A), and the ratio of the activity per gram of the infarcted tissue to activity per gram in the blood (B). Example 10 reports similar results, the difference being that in that example the radionuclides were injected into the live rats eighteen hours after the infarct was induced, rather than three hours.

[8] = Urinary excretion in humans; conditions: within the first hour after injection, 60 min
[9] = Example 9: rat, injected three hours after infarct, sacrificed one hour after injection
[10] = Example 10: rat, injected eighteen hours after infarct

Row | Compound | Kidney/G.I. organ uptake contrast ratio [2] | Kidney/liver organ uptake contrast ratio [2] | Kidney/blood organ uptake contrast ratio [2] | Blood, organ distribution [2] | G.I., organ distribution [2] | Kidney, organ distribution [2] | Liver, organ distribution [2] | also measured
1 | O=C(O)CNC(=O)c1ccccc1[131I] [131 I-iodohippuran] |  |  |  |  |  |  |  | accumulation, retention or elimination of prior agents (in words) ([1]; prior art): predominantly eliminated through active secretion by tubular cells
2 | O=C(O)Cn1cc([131I])c(=O)c([131I])c1.OCCNCCO [131 I-iodopyracet] |  |  |  |  |  |  |  | accumulation, retention or elimination of prior agents (in words) ([1]; in vivo): simultaneous accumulation in surrounding tissue, especially the liver
3 | O=C(O)[C@H](O)[C@@H](O)[C@H](O[C@@H]1O[C@H](CO)[C@H](O)[C@H](O)[C@H]1O)[C@H](O)CO [Example 2] | 57 | 102 | 82 | 1.8% of the activity inject | 6.2% of the activity inject | 23% of the activity inject | 1.3% of the activity inject | 
4 | O=C(O)[C@H](O)[C@@H](O)[C@H](O)[C@H](O)CO [Example 5] | 55 | 50 | 40 | 2.3% of the activity inject | 4.8% of the activity inject | 16% of the activity inject | 1.4% of the activity inject | 
5 | stannous glucoheptonate |  |  |  |  |  |  |  | sub-acute toxicity [3]: no untoward effects; acute toxicity level (LD50) [4]: about 1500 mg/kg; sub-acute toxicity [5]: no ill effects
6 | technetium-99m-stannous-DTPA [Example 7] | 65 | 77 | 32 | 1.0% of the activity inject | 1.1% of the activity inject | 5.0% of the activity inject | 0.3% of the activity inject | Kidney/blood organ uptake contrast ratio ([2]; listed as DTPA): 22
7 | technetium-99m-stannous-glucoheptonate [Example 1] | 44 | 115 | 105 | 1.1% of the activity inject | 5.0% of the activity inject | 18% of the activity inject | 0.7% of the activity inject | total blood activity [6]: less than 2%; ratio A: activity per gram of infarcted tissue to activity per gram of normal tissue [7, 9]: 10.3; ratio B: activity per gram of infarcted tissue to activity per gram in the blood [7, 9]: 4.5; ratio A: activity per gram of infarcted tissue to activity per gram of normal tissue [7, 10]: 6.7; ratio B: activity per gram of infarcted tissue to activity per gram in the blood [7, 10]: 3.2; preferential accumulation in infarcted tissue (in words) ([7]; Examples 9 and 10): more effective in preferentially accumulating in infarcted, rather than normal, tissue than the tetracycline infarct agent; injected dose excreted in the urine [8]: about 25%
8 | technetium-99m-stannous-tetracycline [Tetracycline complex, reference compound] |  |  |  |  |  |  |  | ratio A: activity per gram of infarcted tissue to activity per gram of normal tissue [7, 9]: 5.9; ratio A: activity per gram of infarcted tissue to activity per gram of normal tissue [7, 10]: 3.7
